Reference: PubChem BioAssay (NCI)
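Method: 48-hour compound exposure of cells in 96-well plates, five concentrations, linear interpolation of endpoints. TGI is the concentration that stops growth completely.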

Tests used:
Assay in all cases: NCI anticancer screen, dose series, 48 h
MDA-MB-435 = test system: MDA-MB-435
MDA-MB-231 breast = test system: MDA-MB-231 breast
PC-3 prostate = test system: PC-3 prostate
SK-MEL-2 melanoma = test system: SK-MEL-2 melanoma
UO-31 renal = test system: UO-31 renal
TK-10 renal = test system: TK-10 renal
HOP-62 NSCLC = test system: HOP-62 NSCLC
U251 CNS = test system: U251 CNS
CCRF-CEM leukemia = test system: CCRF-CEM leukemia
ACHN renal = test system: ACHN renal
RPMI-8226 leukemia = test system: RPMI-8226 leukemia
BT-549 breast = test system: BT-549 breast
COLO 205 colon = test system: COLO 205 colon
SK-MEL-28 melanoma = test system: SK-MEL-28 melanoma
HT29 colon = test system: HT29 colon
SF-539 CNS = test system: SF-539 CNS
NCI-H460 lung = test system: NCI-H460 lung

Row | SMILES | TGI (MDA-MB-435) [µM] | TGI (MDA-MB-231 breast) [µM] | TGI (PC-3 prostate) [µM] | TGI (SK-MEL-2 melanoma) [µM] | TGI (UO-31 renal) [µM] | TGI (TK-10 renal) [µM] | TGI (HOP-62 NSCLC) [µM] | TGI (U251 CNS) [µM] | TGI (CCRF-CEM leukemia) [µM] | TGI (ACHN renal) [µM] | TGI (RPMI-8226 leukemia) [µM] | TGI (BT-549 breast) [µM] | TGI (COLO 205 colon) [µM] | TGI (SK-MEL-28 melanoma) [µM] | TGI (HT29 colon) [µM] | TGI (SF-539 CNS) [µM] | TGI (NCI-H460 lung) [µM]
1 | CCSC1=N/C(=C\c2ccco2)C(NN)=N1 | > 50 | > 50 | > 50 | > 50 | > 50 | > 50 | > 50 | > 50 | > 50 | > 50 | > 50 | > 50 | > 50 | > 50 | > 50 | > 50 | > 50
2 | COc1ccc(/C=N/n2c(=O)[nH]c3ccccc3c2=O)cc1 | > 100 | > 100 | > 100 | > 100 | > 100 | > 100 | > 100 | > 100 | > 100 | > 100 | > 100 | > 100 | > 100 | > 100 | > 100 | > 100 | > 100
3 | Cc1nn2c(=O)c([N+](=O)[O-])c(/C=C/c3ccco3)nc2s1 | 44.7 | > 100 | > 100 | > 100 | > 100 | > 100 | > 100 | > 100 | > 100 | > 100 | > 100 | > 100 | > 100 | > 100 | > 100 | > 100 | > 100
4 | CC1=CC=C2c3ccccc3C=CN2C(=O)C1 | > 100 | > 100 | > 100 | > 100 | > 100 | 84.9 | > 100 | > 100 | > 100 | > 100 | > 100 | 56.3 | > 100 | > 100 | > 100 | > 100 | > 100
5 | CCOC(=O)/C(C=Nc1c(C)n(C)n(-c2ccccc2)c1=O)=C(/O)c1ccccc1 | > 100 | > 100 | > 100 | > 100 | > 100 | > 100 | > 100 | > 100 | > 100 | > 100 | > 100 | > 100 | > 100 | > 100 | > 100 | > 100 | > 100
6 | CCOC(=O)CC(=O)C(=O)NNC1=NCCN1 | > 100 | > 100 | > 100 | > 100 | > 100 | > 100 | > 100 | > 100 | > 100 | > 100 | > 100 | > 100 | > 100 | > 100 | > 100 | > 100 | > 100
7 | CCOC(=O)C(NC(=O)C(CCCCNP(=O)(OCC)OCC)NC(=O)C(C)NC(C)=O)C(C)C (stereo not drawn) | > 100 | > 100 | > 100 | > 100 | > 100 | > 100 | > 100 | > 100 | > 100 | > 100 | > 100 | > 100 | > 100 | > 100 | > 100 | > 100 | > 100
8 | O=C1C=CC(=O)c2c1cc([N+](=O)[O-])c1ccoc21 | 26.2 | 52.7 | 30.7 | 35.9 | 8.09 | 4.37 | 31.8 | 37.2 | > 19.7 | 3.4 | > 100 | 30.8 | 8.63 | 60 | 76.7 | 69.9 | 35.2
9 | O=C(NO)c1ccc(OCc2cccc(Cl)c2)cc1 | 44 | 43.2 | > 44.1 | 70.4 | 35.6 | 32.3 | > 47 | > 60.5 | > 100 | 25 | > 58.9 | 48 | 51.7 | 65.1 | 25.6 | > 41.8 | 26
10 | Cc1nnc2sc(Cl)nn12 | 20.2 | 54.4 | 47.2 | 90.3 | 74 | 68.5 | 96 | 31.4 | 26.4 | 54.8 | > 100 | 46.7 | 29.9 | 34.2 | 32.9 | 47.1 | 37.4
11 | COc1ccc2c(c1)CCN=C2Cc1ccccc1CCCl | 45.4 | 44.1 | > 100 | 58.3 | 43.9 | > 100 | > 100 | > 100 | > 100 | 79.2 | 46.7 | > 100 | 40 | > 100 | 55 | 45.8 | 38.8
12 | COC(=O)C(Cc1ccccc1)NC(=O)C(CCC(=O)OCc1ccccc1)NC(=O)OC(C)(C)C (stereo not drawn) | > 100 | > 100 | > 100 | > 100 | > 100 | > 100 | > 100 | > 100 | > 100 | > 100 | > 100 | > 100 | > 100 | > 100 | > 100 | > 100 | > 100
13 | COc1ccc2oc(=Nc3ccccc3)c(C(N)=O)cc2c1 | > 24.4 | > 100 | > 100 | > 100 | > 55.6 | > 87.6 | 98.4 | > 100 | > 100 | 42 | > 100 | > 100 | > 100 | > 100 | > 100 | > 100 | > 100
14 | O=C1OC2C(O)COC2(O)C1(O)C(C[N+](=O)[O-])c1ccc(Cl)cc1 (stereo not drawn) | 4.59 | 48.7 | 34.3 | 35.8 | 22.7 | 25.9 | 40 | 25.5 | 24.1 | 26.7 | 4.67 | 13.1 | 12.8 | 10.8 | 6.11 | 14 | 34.7
15 | Cc1c(-c2ccccc2)[nH]c2ccc(Cl)cc2c1=O | 57.3 | 96 | > 100 | 87 | 0.507 | > 100 | 50.2 | 57.5 | > 100 | > 100 | > 100 | > 100 | > 100 | > 100 | > 100 | 42.9 | > 100
16 | C/C(=C/c1ccccc1)CN(C(=O)/C=C\Sc1ccccc1)C(C)(C)C | > 100 | > 100 | > 100 | > 100 | > 100 | > 100 | > 100 | > 100 | > 100 | > 100 | > 100 | > 100 | > 100 | > 100 | > 100 | > 100 | > 100
17 | O=C(NCCc1ccccc1)[C@H]1CCCC[C@@H]1CCO | > 100 | > 100 | > 100 | > 100 | > 100 | > 100 | > 100 | > 100 | > 100 | > 100 | > 100 | > 100 | > 100 | > 100 | > 100 | > 100 | > 100
18 | Cc1cccc(NC(=S)Nc2ccc([N+](=O)[O-])cc2)n1 | > 100 | > 100 | > 100 | > 100 | > 100 | > 100 | > 100 | > 100 | > 100 | > 100 | > 100 | > 100 | > 100 | > 100 | > 100 | > 100 | > 100
19 | CCCc1cc(=O)oc2c(C=O)c(O)cc(O)c12 | 55.3 | 58.2 | 59.3 | 48.4 | 60.2 | > 100 | 59.7 | 55.7 | 51.4 | 86.7 | 66.5 | 77.1 | 40.8 | 62.8 | 64.5 | 57 | 69.5
